ChEMBL document CHEMBL4373715, “Discovery and Biological Evaluations of Halogenated 2,4-Diphenyl Indeno[1,2-b]pyridinol Derivatives as Potent Topoisomerase IIα-Targeted Chemotherapeutic Agents for Breast Cancer” (J Med Chem, 2019)
Activity calls are given as the source filed them. No cut-off for these calls is given here.

Experiments:
[1] = Stability in rat plasma assessed as parent compound remaining at 1 mM measured after 0.25 hrs by LC-MS/MS analysis; format: ADME, cell-free; conditions: read-out: Stability
[2] = Stability in rat plasma assessed as parent compound remaining at 1 mM measured after 2 hrs by LC-MS/MS analysis; format: ADME, cell-free; conditions: 1000 µM
[3] = Toxicity in male ICR mouse assessed as physical abnormalities at 50 to 100 mg/kg, iv administered as single dose measured up to 7 days; format: organism-based; conditions: in vivo, 168 h
[4] = Stability in mouse plasma assessed as parent compound remaining at 1 mM measured after 4 hrs by LC-MS/MS analysis; format: ADME, cell-free; conditions: 1000 µM
[5] = Stability in human plasma assessed as parent compound remaining at 1 mM measured after 0.5 hrs by LC-MS/MS analysis; format: ADME, cell-free; conditions: read-out: Stability
Calf thymus DNA = test: Inhibition of EtBr binding to calf thymus DNA up to 40 uM measured after 30 mins by fluorescence assay; format: nucleic-acid assay; conditions: Bos taurus
T47D [6] = test: Antiproliferative activity against human T47D cells measured after 72 hrs by EZ-Cytox assay; format: functional, cell-based
[7] = biological target: DNA topoisomerase 2-alpha (Homo sapiens) (UniProt P11388); test: Inhibition of recombinant human topoisomerase 2alpha-mediated relaxation of supercoiled pBR322 DNA at 20 uM measured after 30 mins by ethidium bromide staining based agarose gel electrophoresis relative to control
T47D [8] = test: Induction of apoptosis in human T47D cells assessed as increase in cleaved PARP expression at 10 to 30 uM measured after 24 hrs by Western blot analysis; format: functional, cell-based
[9] = Protein binding in rat plasma assessed as unbound fraction at 1 mM measured immediately by LC-MS/MS analysis; format: ADME, cell-free
MDA-MB-436 = test: Antiproliferative activity against human MDA-MB-436 cells measured after 72 hrs by Ez-cytox assay; format: functional, cell-based; conditions: MDA-MB-436, 72 h
MDA-MB-231 = test: Antiproliferative activity against human MDA-MB-231 cells measured after 72 hrs by Ez-cytox assay; format: functional, cell-based; conditions: MDA-MB-231, 72 h
[10] = Stability in rat plasma assessed as parent compound remaining at 1 mM measured after 0.5 hrs by LC-MS/MS analysis; format: ADME, cell-free; conditions: read-out: Stability
[11] = Stability in rat plasma assessed as parent compound remaining at 1 mM measured after 1 hr by LC-MS/MS analysis; format: ADME, cell-free; conditions: read-out: Stability
[12] = biological target: T1, DNA topoisomerase 1 (Homo sapiens) (UniProt P11387); test: Inhibition of recombinant human topoisomerase 1-mediated relaxation of supercoiled pBR322 DNA at 100 uM measured after 30 mins by ethidium bromide staining based agarose gel electrophoresis relative to control
T1 sequence (whole entry): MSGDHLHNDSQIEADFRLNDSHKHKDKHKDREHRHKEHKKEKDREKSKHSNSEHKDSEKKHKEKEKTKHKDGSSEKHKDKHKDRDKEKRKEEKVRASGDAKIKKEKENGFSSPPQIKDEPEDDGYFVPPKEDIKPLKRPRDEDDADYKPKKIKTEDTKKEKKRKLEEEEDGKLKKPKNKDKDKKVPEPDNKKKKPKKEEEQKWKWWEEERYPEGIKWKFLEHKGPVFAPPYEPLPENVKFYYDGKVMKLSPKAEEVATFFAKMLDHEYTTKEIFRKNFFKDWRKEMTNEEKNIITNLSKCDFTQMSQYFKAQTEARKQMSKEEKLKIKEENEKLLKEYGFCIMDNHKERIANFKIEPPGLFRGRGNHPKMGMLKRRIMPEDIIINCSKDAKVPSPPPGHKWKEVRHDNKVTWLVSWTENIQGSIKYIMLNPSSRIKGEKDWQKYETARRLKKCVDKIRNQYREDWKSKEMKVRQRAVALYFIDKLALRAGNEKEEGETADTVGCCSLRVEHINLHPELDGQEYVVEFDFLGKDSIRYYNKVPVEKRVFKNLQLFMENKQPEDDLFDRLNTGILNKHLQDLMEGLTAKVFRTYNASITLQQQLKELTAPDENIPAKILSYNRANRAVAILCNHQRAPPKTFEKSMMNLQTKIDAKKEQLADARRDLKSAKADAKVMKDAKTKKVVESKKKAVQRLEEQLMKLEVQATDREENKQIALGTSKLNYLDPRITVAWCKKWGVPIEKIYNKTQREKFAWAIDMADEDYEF

[13] = biological target: DNA topoisomerase 2-alpha (Homo sapiens) (UniProt P11388); test: Poison activity at recombinant human topoisomerase-2 alpha assessed as stabilization of enzyme-DNA cleavage complex by measuring linear DNA formation at 500 uM using supercoiled pBR322 DNA as substrate after 60 mins by agarose gel electrophoresis method
[14] = Toxicity in male ICR mouse assessed as change in body weight at 50 to 100 mg/kg, iv administered as single dose measured daily for 7 days; format: organism-based; conditions: in vivo, 168 h
[15] = Half life in Sprague-Dawley rat liver microsomes at 1 mM in presence of NADPH by LC-MS/MS analysis; format: ADME, Microsome
[16] = Stability in rat plasma assessed as parent compound remaining at 1 mM measured immediately by LC-MS/MS analysis; format: ADME, cell-free; conditions: read-out: Stability
[17] = Protein binding in rat plasma assessed as unbound fraction at 1 mM measured after 1 hr by LC-MS/MS analysis; format: ADME, cell-free
[18] = biological target: DNA topoisomerase 2-alpha (Homo sapiens) (UniProt P11388); test: Poison activity at topoisomerase-2 alpha in human T47D cells assessed as stabilization of enzyme-DNA cleavage complex by measuring reduction in topo-2alpha level at 50 uM measured after 2 hrs in presence of etoposide by Western blot analysis; format: cell-based
[19] = Half life in human liver microsomes at 1 mM in presence of NADPH by LC-MS/MS analysis; format: ADME, Microsome
[20] = Toxicity in male ICR mouse assessed as mortality at 100 mg/kg, iv administered as single dose measured daily for 7 days (reference value: 0%); format: organism-based; conditions: in vivo
[21] = Stability in mouse plasma assessed as parent compound remaining at 1 mM measured after 2 hrs by LC-MS/MS analysis; format: ADME, cell-free; conditions: 1000 µM
[22] = Protein binding in human plasma assessed as unbound fraction at 1 mM measured after 1 hr by LC-MS/MS analysis; format: ADME, cell-free
[23] = biological target: DNA topoisomerase 2-alpha (Homo sapiens) (UniProt P11388); test: Poison activity at topoisomerase-2 alpha in human T47D cells assessed as stabilization of enzyme-DNA cleavage complex by measuring reduction in topo-2alpha level at 50 uM measured after 2 hrs by Western blot analysis; format: cell-based
[24] = Stability in mouse plasma assessed as parent compound remaining at 1 mM measured immediately by LC-MS/MS analysis; format: ADME, cell-free; conditions: read-out: Stability
[25] = Protein binding in mouse plasma assessed as unbound fraction at 1 mM measured after 1 hr by LC-MS/MS analysis; format: ADME, cell-free
T47D [26] = test: Induction of apoptosis in human T47D cells assessed as decrease in bcl-2 expression at 10 to 30 uM measured after 24 hrs by Western blot analysis; format: functional, cell-based
[27] = Stability in human plasma assessed as parent compound remaining at 1 mM measured after 1 hr by LC-MS/MS analysis; format: ADME, cell-free; conditions: read-out: Stability
[28] = Stability in rat plasma assessed as parent compound remaining at 1 mM measured after 4 hrs by LC-MS/MS analysis; format: ADME, cell-free; conditions: 1000 µM
[29] = Half life in ICR mouse liver microsomes at 1 mM in presence of NADPH by LC-MS/MS analysis; format: ADME, Microsome

Chain of DNA topoisomerase 2-alpha (Homo sapiens) (P11388 whole entry): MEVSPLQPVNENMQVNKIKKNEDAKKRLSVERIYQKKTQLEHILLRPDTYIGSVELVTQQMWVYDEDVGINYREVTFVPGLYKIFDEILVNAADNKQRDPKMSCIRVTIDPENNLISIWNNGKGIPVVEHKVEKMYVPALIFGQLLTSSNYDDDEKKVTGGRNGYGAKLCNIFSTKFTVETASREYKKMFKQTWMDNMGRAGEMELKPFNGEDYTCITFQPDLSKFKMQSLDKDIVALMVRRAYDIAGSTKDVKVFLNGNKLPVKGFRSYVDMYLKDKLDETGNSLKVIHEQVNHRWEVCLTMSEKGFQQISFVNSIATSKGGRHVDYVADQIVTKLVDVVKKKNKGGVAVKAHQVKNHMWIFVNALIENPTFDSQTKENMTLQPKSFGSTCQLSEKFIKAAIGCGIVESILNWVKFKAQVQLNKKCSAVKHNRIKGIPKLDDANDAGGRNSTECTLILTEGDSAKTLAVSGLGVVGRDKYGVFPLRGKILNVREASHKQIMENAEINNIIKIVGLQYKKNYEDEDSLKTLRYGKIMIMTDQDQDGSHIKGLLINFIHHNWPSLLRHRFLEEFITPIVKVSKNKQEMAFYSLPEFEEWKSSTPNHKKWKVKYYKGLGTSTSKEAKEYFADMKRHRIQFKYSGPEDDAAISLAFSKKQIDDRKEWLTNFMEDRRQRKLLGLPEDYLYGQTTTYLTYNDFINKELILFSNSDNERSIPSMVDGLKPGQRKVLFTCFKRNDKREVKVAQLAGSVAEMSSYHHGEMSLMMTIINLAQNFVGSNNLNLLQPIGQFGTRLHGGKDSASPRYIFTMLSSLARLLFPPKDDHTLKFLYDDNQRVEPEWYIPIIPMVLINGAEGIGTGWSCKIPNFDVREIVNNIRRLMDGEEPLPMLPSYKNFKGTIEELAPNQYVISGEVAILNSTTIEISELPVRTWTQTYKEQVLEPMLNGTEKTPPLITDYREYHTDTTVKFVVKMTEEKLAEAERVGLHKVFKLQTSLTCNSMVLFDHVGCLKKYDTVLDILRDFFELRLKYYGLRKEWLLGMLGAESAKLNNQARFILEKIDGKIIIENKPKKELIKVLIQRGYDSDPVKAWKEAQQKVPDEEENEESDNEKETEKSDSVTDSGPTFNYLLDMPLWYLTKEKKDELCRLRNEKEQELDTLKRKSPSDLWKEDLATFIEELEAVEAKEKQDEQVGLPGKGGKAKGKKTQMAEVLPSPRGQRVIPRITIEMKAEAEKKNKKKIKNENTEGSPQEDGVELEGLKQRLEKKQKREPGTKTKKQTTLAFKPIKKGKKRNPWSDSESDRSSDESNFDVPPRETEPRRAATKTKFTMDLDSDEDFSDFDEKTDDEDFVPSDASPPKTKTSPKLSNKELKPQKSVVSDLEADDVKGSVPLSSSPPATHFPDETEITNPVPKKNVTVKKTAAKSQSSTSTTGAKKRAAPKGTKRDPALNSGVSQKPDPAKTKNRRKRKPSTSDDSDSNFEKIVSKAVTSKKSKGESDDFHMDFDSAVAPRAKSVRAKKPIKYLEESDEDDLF

Structure (SMILES): Oc1ccc(-c2cc(-c3ccccc3Cl)nc3c2Cc2c(O)cccc2-3)cc1
- remaining at 0.25 h [1]: 102%
- Stability [2]: 119.6%
- Activity [3]: Non-Toxic
- Stability [4]: 130.8%
- remaining at 0.5 h [5]: 99.3%
- inhibition (Calf thymus DNA): inactive
- IC50 (T47D [6]): 2.67 nM
- inhibition [7]: 78.9%
- Activity (T47D [8]): Active
- fraction unbound at 0 h [9]: 1
- IC50 (MDA-MB-436): 2640 nM
- IC50 (MDA-MB-231): 2700 nM
- remaining at 0.5 h [10]: 99.8%
- remaining at 1 h [11]: 111%
- inhibition [12]: 0%
- Activity [13]: Active
- Activity [14]: Non-Toxic
- half-life [15]: 26 h
- remaining at 0 h [16]: 100%
- fraction unbound at 1 h [17]: 1
- Activity [18]: Active
- half-life [19]: 6.53 h
- mortality at 168 h [20]: 0%
- Stability [21]: 116.3%
- fraction unbound at 1 h [22]: 0.959
- Activity [23]: Active
- remaining at 0 h [24]: 100%
- fraction unbound at 1 h [25]: 0.999
- Activity (T47D [26]): Active
- remaining at 1 h [27]: 104%
- Stability [28]: 130.4%
- half-life [29]: 2.61 h
